Patent US20170204102A1, “AGRICULTURAL AGENT CONTAINING 2,5-DIKETOPIPERAZINE DERIVATIVE AS ACTIVE INGREDIENT” (NAPRO BIOTEC INC., priority 2010, published 2017)
Read-outs that look alike come from different tables or passages of the source.

Tests used:
[1] = test system: Pectobacterium carotovorum SCC1; assay: Inhibition of soft rot lesion in tobacco leaf; assay type: in vivo
[2] = test system: Pectobacterium carotovorum SCC1; assay: Inhibition of soft rot lesion in cucumber leaf; assay type: in vivo
[3] = test system: Colletotrichum orbiculare; assay type: in vivo; conditions: cucumber; for Number of anthractic lesions in first leaf: control 12.5; for Number of anthractic lesions in second leaf: control 96.8
[4] = test system: Pectobacterium carotovorum SCC1; assay: Inhibition of naturally occurring soft rot in Chinese cabbage hydrocultured in summer; assay type: in vivo; conditions: for Appearance of soft rot: 20 ppm, sprayed, examined 1 week later, control 58
Text: After spraying test compounds to hydrocultured Chinese cabbage, naturally occurring soft rot was examined 1 week later.

[5] = test system: cucumber leaf; assay: Promotion of growth of cucumber leaf; conditions: Cucumis sativus, read-out: Width of leaf
Method: Plant leaves were tested with test compounds by drenching. […] 3-5 days later, the width of the leaves was measured again to compare the growth of the leaves relative to the control group.

[6] = test system: Colletotrichum acutatum; assay: Inhibition of anthracnose in red pepper fruit after soil drench; conditions: control 50
[7] = test system: PR-1α promoter fused to the GUS gene; assay: PR-1α-GUS activity in tobacco leaf; assay type: in vivo; conditions: control 54
Method: After adding 960 μL of stop buffer (0.2M sodium carbonate) to make 1 mL, fluorescence was measured using a TKO 100 fluorometer (Hoefer Scientific Instruments, USA).

[8] = test system: anthracnose-causing Colletotrichum orbiculare; assay type: in vivo; conditions: tobacco leaf, control 240.3
[9] = test system: PR-1 gene; conditions: background art; cited from earlier work
[10] = test system: PDF1.2 gene; conditions: background art; cited from earlier work

O=C1NCC(=O)N2CCCC12 (stereo not shown) [Compound No. 29, hexahydropyrrolo[1,2-a]pyrazin-1,4-dione]
Area of lesion ([1]; 1 ppm, Table 4, control 100): 27.5% | Area of lesion ([1]; 10 ppm, Table 4, control 100): 0% | Area of lesion ([1]; 100 ppm, Table 4, control 100): 0% | Area of lesion ([2]; 1 ppm, Table 7, control 100): 43% | Area of lesion ([2]; 10 ppm, Table 7, control 100): 63% | Area of lesion ([2]; 100 ppm, Table 7, control 100): 90% | Number of anthractic lesions in first leaf ([3]; 0.1 ppm): 0.8 | Number of anthractic lesions in second leaf ([3]; 0.1 ppm): 51.3 | Number of anthractic lesions in first leaf ([3]; 1 ppm): 5.0 | Number of anthractic lesions in second leaf ([3]; 1 ppm): 35.8 | Number of anthractic lesions in first leaf ([3]; 10 ppm): 10.0 | Number of anthractic lesions in second leaf ([3]; 10 ppm): 55.5 | Number of anthractic lesions in first leaf ([3]; 100 ppm): 5.0 | Number of anthractic lesions in second leaf ([3]; 100 ppm): 87.0 | Appearance of soft rot [4]: 14% | Inhibitory effect against soft rot in Chinese cabbage (in words) ([4]; Table 11, FIG. 10): very superior inhibitory effect | response vs control in vivo at 1 ppm [5]: 100% | response vs control in vivo at 10 ppm [5]: 120% | response vs control in vivo at 100 ppm [5]: 115% | Appearance of anthracnose ([6]; 1 ppm): 0% | Appearance of anthracnose ([6]; 10 ppm): 0% | Appearance of anthracnose ([6]; 100 ppm): 0%

CSC(=O)c1cccc2nnsc12 [BTH, benzo-1,2,3-thiadiazole-7-carbothioic acid S-methyl ester, reference compound]
PR-1α-GUS activity ([7]; 1 ppm): 21,015 nM MU/10 mg/h | Number of anthractic lesions ([8]; 1 ppm): 58.3 | Area of lesion ([1]; 1 ppm, Table 3, control 87.5): 52.5% | Area of lesion ([1]; 1 ppm, Table 4, control 100): 95% | Area of lesion ([1]; 1 ppm, Table 5, control 73.75): 50% | Area of lesion ([1]; 10 ppm, Table 3, control 87.5): 52.5% | Area of lesion ([1]; 10 ppm, Table 4, control 100): 95% | Area of lesion ([1]; 10 ppm, Table 5, control 73.75): 50% | Area of lesion ([1]; 100 ppm, Table 3, control 87.5): 52.5% | Area of lesion ([1]; 100 ppm, Table 4, control 100): 95% | Area of lesion ([1]; 100 ppm, Table 5, control 73.75): 50% | Area of lesion ([2]; 1 ppm, Table 6, control 100): 100% | Area of lesion ([2]; 1 ppm, Table 7, control 100): 90% | Area of lesion ([2]; 1 ppm, Table 8, control 100): 100% | Area of lesion ([2]; 10 ppm, Table 6, control 100): 100% | Area of lesion ([2]; 10 ppm, Table 7, control 100): 90% | Area of lesion ([2]; 10 ppm, Table 8, control 100): 100% | Area of lesion ([2]; 100 ppm, Table 6, control 100): 100% | Area of lesion ([2]; 100 ppm, Table 7, control 100): 90% | Area of lesion ([2]; 100 ppm, Table 8, control 100): 100% | Number of anthractic lesions in first leaf ([3]; 0.1 ppm): 0.8 | Number of anthractic lesions in second leaf ([3]; 0.1 ppm): 100.3 | Number of anthractic lesions in first leaf ([3]; 1 ppm): 0.8 | Number of anthractic lesions in second leaf ([3]; 1 ppm): 100.3 | Number of anthractic lesions in first leaf ([3]; 10 ppm): 0.8 | Number of anthractic lesions in second leaf ([3]; 10 ppm): 100.3 | Number of anthractic lesions in first leaf ([3]; 100 ppm): 0.8 | Number of anthractic lesions in second leaf ([3]; 100 ppm): 100.3 | Induction of expression of the PR-1 gene [9]: induces the expression of the PR-1 gene | Induction of expression of the PDF1.2 gene [10]: does not induce the expression | response vs control in vivo at 1 ppm [5]: 93.8% | response vs control in vivo at 10 ppm [5]: 90.5% | response vs control in vivo at 100 ppm [5]: 92% | Appearance of anthracnose ([6]; 1 ppm): 25% | Appearance of anthracnose ([6]; 10 ppm): 0% | Appearance of anthracnose ([6]; 100 ppm): 0%

CC(C)CC1NC(=O)CNC1=O (stereo not shown) [Compound No. 2, 3-(2-methylpropyl)-2,5-diketopiperazine]
Area of lesion ([1]; 1 ppm, Table 3, control 87.5): 32.5% | Area of lesion ([1]; 10 ppm, Table 3, control 87.5): 40% | Area of lesion ([1]; 100 ppm, Table 3, control 87.5): 60% | Area of lesion ([2]; 1 ppm, Table 6, control 100): 92.5% | Area of lesion ([2]; 10 ppm, Table 6, control 100): 82.5% | Area of lesion ([2]; 100 ppm, Table 6, control 100): 50% | melting point: 241 to 244 °C

CCC(C)C1NC(=O)C2CCCN2C1=O (stereo not shown) [Compound No. 28, 3-(1-methylpropyl)hexahydropyrrolo[1,2-a]pyrazin-1,4-dione]
Area of lesion ([1]; 1 ppm, Table 4, control 100): 12.5% | Area of lesion ([1]; 10 ppm, Table 4, control 100): 82.5% | Area of lesion ([1]; 100 ppm, Table 4, control 100): 2.5% | Area of lesion ([2]; 1 ppm, Table 7, control 100): 55% | Area of lesion ([2]; 10 ppm, Table 7, control 100): 83% | Area of lesion ([2]; 100 ppm, Table 7, control 100): 65% | Number of anthractic lesions in first leaf ([3]; 0.1 ppm): 5.3 | Number of anthractic lesions in second leaf ([3]; 0.1 ppm): 55.3 | Number of anthractic lesions in first leaf ([3]; 1 ppm): 2.3 | Number of anthractic lesions in second leaf ([3]; 1 ppm): 62.3 | Number of anthractic lesions in first leaf ([3]; 10 ppm): 12.3 | Number of anthractic lesions in second leaf ([3]; 10 ppm): 87.3 | Number of anthractic lesions in first leaf ([3]; 100 ppm): 10.8 | Number of anthractic lesions in second leaf ([3]; 100 ppm): 77.3 | Appearance of soft rot [4]: 49% | melting point: 104 to 105 °C | response vs control in vivo at 1 ppm [5]: 100% | response vs control in vivo at 10 ppm [5]: 120% | response vs control in vivo at 100 ppm [5]: 129% | Appearance of anthracnose ([6]; 1 ppm): 0% | Appearance of anthracnose ([6]; 10 ppm): 25% | Appearance of anthracnose ([6]; 100 ppm): 0%

CC1NC(=O)C2CCCN2C1=O (stereo not shown) [Compound No. 25, 3-methylhexahydropyrrolo[1,2-a]pyrazin-1,4-dione]
Area of lesion ([1]; 1 ppm, Table 4, control 100): 15% | Area of lesion ([1]; 10 ppm, Table 4, control 100): 12.5% | Area of lesion ([1]; 100 ppm, Table 4, control 100): 0% | Area of lesion ([2]; 1 ppm, Table 7, control 100): 78% | Area of lesion ([2]; 10 ppm, Table 7, control 100): 73% | Area of lesion ([2]; 100 ppm, Table 7, control 100): 85% | Number of anthractic lesions in first leaf ([3]; 0.1 ppm): 3.8 | Number of anthractic lesions in second leaf ([3]; 0.1 ppm): 37.0 | Number of anthractic lesions in first leaf ([3]; 1 ppm): 1.3 | Number of anthractic lesions in second leaf ([3]; 1 ppm): 46.0 | Number of anthractic lesions in first leaf ([3]; 10 ppm): 1.0 | Number of anthractic lesions in second leaf ([3]; 10 ppm): 22.5 | Number of anthractic lesions in first leaf ([3]; 100 ppm): 2.0 | Number of anthractic lesions in second leaf ([3]; 100 ppm): 27.8 | Appearance of soft rot [4]: 19% | response vs control in vivo at 1 ppm [5]: 121% | response vs control in vivo at 10 ppm [5]: 119% | response vs control in vivo at 100 ppm [5]: 123% | Appearance of anthracnose ([6]; 1 ppm): 0% | Appearance of anthracnose ([6]; 10 ppm): 25% | Appearance of anthracnose ([6]; 100 ppm): 25%

CC(C)C1NC(=O)C2CCCN2C1=O (stereo not shown) [Compound No. 26, 3-isopropylhexahydropyrrolo[1,2-a]pyrazin-1,4-dione]
PR-1α-GUS activity ([7]; 0.1 ppm): 34,967 nM MU/10 mg/h | PR-1α-GUS activity ([7]; 1 ppm): 27,497 nM MU/10 mg/h | Number of anthractic lesions ([8]; 0.1 ppm): 67.1 | Number of anthractic lesions ([8]; 1 ppm): 63.3 | response vs control in vivo at 1 ppm [5]: 112% | response vs control in vivo at 10 ppm [5]: 128% | response vs control in vivo at 100 ppm [5]: 129%
